PubChem BioAssay (NCI)
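Assay format: 96-well plates, 48-hour exposure. The concentration for 50% growth inhibition is given as GI50. TGI: concentration producing complete growth inhibition.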

Assays:
Test in all cases: NCI anticancer screen, dose series, 48 h; in the data active = GI50 below about 0.43 µM; inactive = the rest
[1] = system: M14 melanoma
[2] = system: CAKI-1 renal
[3] = system: HCC-2998 colon
[4] = system: KM12 colon
[5] = system: MOLT-4 leukemia
[6] = system: SW-620 colon
[7] = system: NCI-H23 lung
[8] = system: UO-31 renal
[9] = system: NCI/ADR-RES ovarian
[10] = system: SN12C renal
[11] = system: SR leukemia
[12] = system: A498 renal
[13] = system: IGROV1 ovarian
[14] = system: HOP-92 NSCLC
[15] = system: HCT-15 colon
[16] = system: SK-MEL-5 melanoma
[17] = system: SF-539 CNS
[18] = system: ACHN renal
[19] = system: HL-60(TB) leukemia
[20] = system: NCI-H460 lung
[21] = system: MDA-MB-435
[22] = system: SNB-75 CNS
[23] = system: DU-145 prostate
[24] = system: OVCAR-3 ovarian
[25] = system: SK-MEL-28 melanoma
[26] = system: UACC-62 melanoma
[27] = system: SK-OV-3 ovarian
[28] = system: PC-3 prostate
[29] = system: SK-MEL-2 melanoma
[30] = system: SF-268 CNS
[31] = system: SNB-19 CNS
[32] = system: MDA-MB-231 breast
[33] = system: RXF 393 renal
[34] = system: HCT-116 colon
[35] = system: U251 CNS
[36] = system: LOX IMVI melanoma
[37] = system: 786-0 renal
[38] = system: OVCAR-5 ovarian
[39] = system: RPMI-8226 leukemia
[40] = system: NCI-H226 lung
[41] = system: HS 578T breast
[42] = system: BT-549 breast
[43] = system: A549 NSCLC
[44] = system: MCF7 breast
[45] = system: HT29 colon
[46] = system: SF-295 CNS
[47] = system: COLO 205 colon
[48] = system: HOP-62 NSCLC
[49] = system: OVCAR-8 ovarian
[50] = system: TK-10 renal
[51] = system: K-562 leukemia
[52] = system: EKVX NSCLC
[53] = system: OVCAR-4 ovarian
[54] = system: NCI-H522 lung

COc1cc(C2CC(c3cccc(Nc4ccncc4)c3)=NN2c2cc(Cl)cc(Cl)c2)cc(OC)c1OC (stereo unspecified)
2.98 µM: TGI [3]
3.57 µM: TGI [5]
2.91 µM: TGI [2]
3.36 µM: TGI [1]
3.43 µM: TGI [15]
3.72 µM: TGI [11]
3.25 µM: TGI [13]
3.18 µM: TGI [26]
3.08 µM: TGI [23]
3.06 µM: TGI [22]
3.2 µM: TGI [6] | TGI [17]
2.79 µM: TGI [8]
3.24 µM: TGI [16]
3.89 µM: TGI [27]
3.65 µM: TGI [19]
3.02 µM: TGI [31]
3.21 µM: TGI [24] | TGI [30]
4.22 µM: TGI [12]
3.38 µM: TGI [7]
4.13 µM: TGI [29]
3.28 µM: TGI [20]
3.14 µM: TGI [10] | TGI [28]
2.44 µM: TGI [14]
3.31 µM: TGI [25]
3.15 µM: TGI [21]
3.1 µM: TGI [4]
3.53 µM: TGI [9]
inactive: GI50 [1] 1.75 µM | GI50 [2] 1.53 µM | GI50 [3] 1.56 µM | GI50 [4] 1.65 µM | GI50 [5] 1.53 µM | GI50 [6] 1.67 µM | GI50 [7] 1.79 µM | GI50 [8] 1.44 µM | GI50 [9] 1.84 µM | GI50 [10] 1.66 µM | GI50 [11] 1.64 µM | GI50 [12] 1.27 µM | GI50 [13] 1.69 µM | GI50 [14] 1.12 µM | GI50 [15] 1.79 µM | GI50 [16] 1.8 µM | GI50 [17] 1.72 µM | GI50 [18] 1.66 µM | GI50 [19] 1.53 µM | GI50 [20] 1.73 µM | GI50 [21] 1.61 µM | GI50 [22] 1.31 µM | GI50 [23] 1.68 µM | GI50 [24] 1.73 µM | GI50 [25] 1.76 µM | GI50 [26] 1.69 µM | GI50 [27] 1.86 µM | GI50 [28] 1.57 µM | GI50 [29] 2.05 µM | GI50 [30] 1.61 µM | GI50 [31] 1.61 µM
3.03 µM: TGI [18]

O=c1c(Cl)nnc2sc3ccccc3n12
9.92 µM: TGI [18]
64.5 µM: TGI [36]
41.9 µM: TGI [9]
54.3 µM: TGI [15]
85.3 µM: TGI [35]
inactive: GI50 [1] 22.2 µM | GI50 [2] 0.813 µM | GI50 [32] 14.2 µM | GI50 [4] 32.3 µM | GI50 [5] 19.6 µM | GI50 [6] 47.7 µM | GI50 [7] 25.2 µM | GI50 [33] 27.8 µM | GI50 [9] 13.3 µM | GI50 [10] 24.6 µM | GI50 [34] 20.4 µM | GI50 [11] 13.1 µM | GI50 [35] 30.9 µM | GI50 [12] > 100 µM | GI50 [36] 30.5 µM | GI50 [37] 64.7 µM | GI50 [13] 31.9 µM | GI50 [14] 20.6 µM | GI50 [15] 16.5 µM | GI50 [16] 37.3 µM | GI50 [17] 37.5 µM | GI50 [18] 2.3 µM | GI50 [38] 54.1 µM | GI50 [19] 18.3 µM | GI50 [39] 27.9 µM | GI50 [40] 43.1 µM | GI50 [20] 37.7 µM | GI50 [21] 42 µM | GI50 [41] 85.4 µM | GI50 [42] 64.9 µM | GI50 [22] > 100 µM | GI50 [23] 57 µM | GI50 [24] 34.4 µM | GI50 [25] 59 µM | GI50 [43] 39.7 µM | GI50 [44] 33.6 µM | GI50 [45] 53.7 µM | GI50 [26] 40.8 µM | GI50 [46] 45.6 µM | GI50 [47] 47 µM | GI50 [27] 59.9 µM | GI50 [48] 67.4 µM | GI50 [49] 40.8 µM | GI50 [50] 8.15 µM | GI50 [28] 47.8 µM | GI50 [51] 26 µM | GI50 [52] 24.2 µM | GI50 [53] 46.9 µM | GI50 [29] > 100 µM | GI50 [30] 51.1 µM | GI50 [31] 77.5 µM | GI50 [54] > 100 µM
91.9 µM: TGI [1]
68.3 µM: TGI [34]
> 100 µM: TGI [32] | TGI [4] | TGI [5] | TGI [6] | TGI [7] | TGI [10] | TGI [11] | TGI [12] | TGI [37] | TGI [13] | TGI [14] | TGI [16] | TGI [17] | TGI [38] | TGI [19] | TGI [39] | TGI [40] | TGI [20] | TGI [21] | TGI [41] | TGI [42] | TGI [22] | TGI [23] | TGI [24] | TGI [25] | TGI [43] | TGI [44] | TGI [45] | TGI [26] | TGI [46] | TGI [47] | TGI [27] | TGI [48] | TGI [49] | TGI [28] | TGI [51] | TGI [52] | TGI [53] | TGI [29] | TGI [30] | TGI [31] | TGI [54]
81.9 µM: TGI [33]
6.9 µM: TGI [2]
90.7 µM: TGI [50]
